No end group written: not given here.
Test system: PAR-C10 cells
Assay: Trans-epithelial electrical resistance (TEER) assay of tight junction integrity in PAR-C10 monolayers treated with IFNγ and TNFα
Format: cell-based, rat
Details: for prevention of cytokine-induced drop in TEER: co-incubation with IFNγ and TNFα, larazotide acetate 1 mM and 5 mM, other compounds 5 mM and 10 mM, FIG. 1-3
From the text: Specifically, an in vitro assay system to measure tight junction integrity was established using PAR-C10 cells, an immortalized rat acinar epithelial cell line, which mimic the biochemical and functional characteristics of primary salivary gland acinar cells. PAR-C10 cells form a monolayer of cuboidal cells, and are attached to each other with well-formed junctional complexes. PAR-C10 cells have been used to model the effect of inflammatory cytokines on tight junctions in vitro. Quissell et al., (1998) In Vitro Cell. Dev. Biol. Anim. 34: 58-67; Baker et al., Am. J. Cell Physiol. 295:C1191-1201. The cells were seeded on permeable supports in 12 well plates and cultured to form monolayers. The trans-epithelial electrical resistance (TEER) across the epithelial monolayer was measured to evaluate formation of tight junction between the cells. Three ng/ml of each pro-inflammatory cytokines, interferon gamma (IFNγ) and tumor necrosis factor alpha (TNFα) were added to the monolayers and incubated for 24 hours in order to cause tight junction disruption. Larazotide acetate (1 mM and 5 mM) or any one of 4-Aminosalicylic acid (4-ASA), 4-Amino-phenyl-acetic acid (4-APAA), and 4-Acetyl amino-phenyl-acetic acid (4-Ac APAA) (5 or 10 mM) of was added to the apical surface and the cells allowed to grow for an additional 24 hours. The compounds were dissolved in dimethyl sulfoxide and added to the culture media to obtain a final concentration of 5 mM and 10 mM each.
TEER measurements were used to determine the effect of larazotide acetate (1 or 5 mM) and other anti-inflammatory compounds (4-Aminosalicylic acid (4-ASA), 4-Amino-phenyl-acetic acid (4-APAA), and 4-Acetyl amino-phenyl-acetic acid (4-Ac APAA)) (5 or 10 mM) on tight junctions, in the presence of cytokines. To determine a therapeutic effect, the cells were pre-treated with cytokines, and the ability of larazotide acetate (1 or 5 mM) or 4-ASA, 4-APAA, and 4-Ac APAA (each at 5 or 10 mM) to reverse junctional disruption was evaluated. Wells not treated with cytokines were used as controls. p values were determined by Kruskal Wallis tests, and adjusted p values were determined by Dunns post test.

| Molecule | prevention of cytokine-induced drop in TEER | prevention of cytokine induced disruption of tight junctions (TEER) (5 mM concentration, 2 independent experiments, FIG. 2) | reversal of cytokine-mediated drop in TEER (monolayers incubated with IFNγ and TNFα for 24 hours, then larazotide acetate (1 mM and 5 mM) on apical surface for additional 24 hours, FIG. 4) |
| --- | --- | --- | --- |
| Nc1ccc(C(=O)O)c(O)c1 [4-Aminosalicylic acid, reference compound] | significantly prevent a drop in TEER | – | – |
| CC(=O)Nc1ccc(CC(=O)O)cc1 [4-Acetyl amino-phenyl-acetic acid, (4-acetylaminophenyl)-acetic acid, reference compound] | significantly prevent a drop in TEER | – | – |
| GGVLVQPG [larazotide acetate] | significantly prevent a drop in TEER | can reproducibly prevent cytokine induced disruption of tight junctions | able to reverse the cytokine-mediated drop in TEER |
| Nc1ccc(CC(=O)O)cc1 [4-Amino-phenyl-acetic acid, 4-aminophenylacetic acid] | significantly prevent a drop in TEER | – | – |

From US12414979B2, “Compositions and methods for treating Sjogren's syndrome” (Interlude Biopharma Co., priority 2019, dated 2025)
